According to patent publication US20090042208A1, “Assays for erectile and bladder dysfunction and vascular health” (priority 2007, published 2009):
Marks after values point to notes of the source that are not given here. Ends that are not written are not given here.

Key:
[1] = tested on: isolated corporal smooth muscle tissue; test: Contractility (relaxation rate) of isolated corporal smooth muscle strips; design: species or system rat
Protocol: Studies of contractility of isolated smooth muscle tissue were carried out as described previously (Chang et al. 2003, Spektor et al. 2002). Four longitudinal strips of cavernous tissue from the crura of old animals (n=4) were dissected free from the tunica albuginea and were suspended between two small surgical hooks in a tension-measuring device (Multimyograph Model 610M, Copenhagen, Denmark) that allows simultaneous monitoring of four muscle strips. Tissue was equilibrated for 90 min in 6 ml Krebs-Henseleit buffer composed of 110 mM NaCl, 4.8 mM. KCl, 2.5 mM CaCl2, 1.2 mM MgSO4, 1.2 mM KH2PO4, 25 mM NaHCO3, 11 mM glucose, and dextrose in glass-distilled water. Organ chambers were maintained at 37° C. and continuously bubbled with 95% O2 and 5% CO2 to maintain a mean pH of 7.4±0.1. Continuous recording of tension developed by the muscle strips was carried out using Powerlab software (Chart version 4.2.4, ADinstruments, CO) on a dedicated computer. Strips of corpus cavernosum first were precontracted with phenylephrine (10^−6 M). Then, relaxation was induced using CNP (10^−6 M). […] Results from four separate strips from four animals were averaged and the significance determined by the Student's t test.

[2] = tested on: retired breeder male Sprague-Dawley rats; test: ICP/BP and blood pressure after intracorporal injection of sialorphin; format: in vivo, rat; details: 10 and 100 μg intracorporal
Protocol: Experiments were carried out on 9- to 10-month-old retired breeder male Sprague-Dawley rats weighing more than 500 g (as described in Melman et al. 2005). When measurements were complete, animals were killed by placement within a CO2 gas chamber. All protocols were approved by the Animal Use Committee and Internal Review board at the Albert Einstein College of Medicine.
The sialorphin peptide (2 mg) was dissolved in 0.5 ml of 0.01 N acetic acid and then was vortexed, and the solution was centrifuged for a few seconds at approximately 1000 g and 4° C. (to gather all the liquid at the bottom of the tube). The stock solution was stored in 25-μl aliquots (100 μg) at −70° C. Before use, the stock was thawed on ice, and phosphate buffered saline (pH 7.4) was added to bring the volume to 150 μl.
Intracorporal microinjection of sialorphin into rat corporal tissue was modified from previously described procedures, where plasmids were injected intracorporeally to investigate their effect on the ICP/BP ratio (Christ et al. 1998, 2004; Melman et al. 2005). […] The changes in ICP and systemic BP were recorded at both levels of neurostimulation. […] Mean ICP/BP (n=7) and standard deviation were calculated before and after treatment. Significant change in the ICP/BP value from that of the pretreatment group was determined by Student's t test.

[3] = tested on: retired breeder rats; test: Longest visually observed erection and ICP/BP after tadalafil, pVAX-hSlo or both; format: in vivo, rat; details: tadalafil 2.5 mg/kg orally 2 h before; pVAX-hSlo 1000 μg intracorporal 1 month before
Protocol: (§1) In a second set of animals (retired breeder, male Sprague Dawley rats) in which the effect of tadalafil was to be measured alone or in combination with pVAX-hSlo, 1000 μg pVAX-hSlo was administered to 10 animals 1 month prior to determination of erectile function and gene expression. Five of these animals were treated with 2.5 mg/kg of tadalafil orally two hours prior to ICP/BP measurement. A third group of five animals were untreated controls, and the fourth group of five animals treated with 2.5 mg/kg of tadalafil orally. two hours prior to ICP/BP measurement.
ICP/BP measurement. ICP/BP was measured essentially as previously described (Christ et al. 1998; Melman et al. 2003). Briefly, animals were anesthetized by intraperitoneal injection of pentobarbital sodium (35 mg/kg). An incision was made in the perineum, and the corpus cavernosum exposed. The cavernous nerves were identified adjacent to the prostate gland. Direct electrostimulation of a cavernous nerve was performed with a delicate stainless steel bipolar hook electrode attached to the multi-jointed clamp. […] Prior to electrostimulation the longest visually observed erection was measured. […] The changes in ICP and systemic BP were recorded at each level of neurostimulation. The mean ICP/BP, standard deviation, and analysis of variance were calculated for each of the treatment groups.

[4] = tested on: Vcsa1 and Slo transcripts in corporal tissue; test: Quantitative RT-PCR of Vcsa1 and Slo transcripts in corpora after tadalafil, pVAX-hSlo or both; format: in vivo, rat; details: tadalafil 2.5 mg/kg orally 2 h before; pVAX-hSlo 1000 μg 1 month before; or both
Protocol: as §1
RNA Isolation from corporal tissue. Following the ICP/BP measurement, animals were euthanized and corporal tissues isolated and flash frozen in liquid nitrogen. […]
Measurement of gene expression by quantitative RT-PCR. RNA extracted either from corporal tissue or transfected corporal smooth muscle cells was used to analyze gene expression by quantitative RT-PCR. […] Real-time quantitative PCR analysis was performed using the 7300 real-time PCR system (Applied Biosystems, Foster City, Calif.).
The PCR reactions for all samples were performed in 96-well plates, with 2 μl cDNA, 100 nM each primer, and 12.5 μl of Sybr Green in a 25-μl reaction volume. […] The relative quantified value for each target gene in corpora of treated rats is expressed as 2^−(Ct−Cc) (Ct and Cc are the mean threshold cycle differences after normalizing to RPL24). […]

In the case of C-type natriuretic peptide [CNP], the “Increase in the relaxation rate of the tissue” value ([1]; 1 μM CNP, versus carrier) is reported as 67% and the “Rate of Tension Loss” value ([1]; strips precontracted with 1 μM phenylephrine, 1 μM CNP and/or 1 μg/ml sialorphin) is reported as 0.087* g/min.
QHNPR [sialorphin, QHNPR] was tested, and the “Effect on systemic blood pressure” value [2] was “no effect”.
With CN1CC(=O)N2[C@H](c3ccc4c(c3)OCO4)c3[nH]c4ccccc4c3C[C@@H]2C1=O [tadalafil] the “Longest erection time, difference to untreated control groups” value [3] was “about 100 seconds”, the “Longest measured erection time” value [3] was “approximately 210 seconds” and the “Vcsa1 expression increase versus untreated animals” value [4] was “approximately 4 fold”.
